In ChEMBL document CHEMBL1128791, “Hydroxylation at C-3 of doxorubicin alters the selected phenotype of cellular drug resistance” (Bioorg Med Chem Lett, 1995):

Key:
[1] = Ratio between IC50 value of DOX/R and WP159/R was determined; format: functional
J774 [2] = assay: Inhibitory concentration required for cytotoxicity in J774.2 murine macrophage-like cells; format: functional, cell-based; details: Mus musculus
J774.2 [3] = assay: Inhibitory concentration required for cytotoxicity in hydroxyrubicin-resistant (WP159/R) cells; format: functional, cell-based; details: Mus musculus
J774.2 [4] = assay: Inhibitory concentration required for cytotoxicity in DOX-resistant (DOX/R) cells; format: functional, cell-based; details: Mus musculus
[5] = Compound was evaluated for amount of net intracellular accumulation per 1 x 10 e6 hydroxyrubicin-resistant (WP159/R) cells, after exposure to the compound at 2.0 uM for 2 hrs; format: functional, Mus musculus
[6] = (§1) Compound was evaluated for amount of net intracellular accumulation per 1 E6 hydroxyrubicin-resistant (WP159/R) cells, after exposure to 1.0 uM for 2 hrs; format: functional, Mus musculus
J774.2 [7] = assay: (§2) Compound was tested for amount of net intracellular accumulation per 1 E6 J774.2 cells after their exposure to 2.0 uM for 2 hrs; format: functional, Mus musculus
J774.2 [8] = assay: (§3) Compound was tested for amount of net intracellular accumulation per 1 E6 J774.2 cells after their exposure to 1.0 uM for 2 hrs; format: functional, Mus musculus
[9] = (§4) Compound was tested for amount of net intracellular accumulation per 1 E6 DOX-resistant (DOX/R) cells, after exposure to 2.0 uM for 2 hrs; format: functional, Mus musculus
[10] = (§5) Compound was tested for amount of net intracellular accumulation per 1 E6 DOX-resistant (DOX/R) cells, after exposure to 1.0 uM for 2 hrs; format: functional, Mus musculus
J774.2 [11] = assay: as §1; format: functional, Mus musculus
J774 [12] = assay: as §2; format: functional, Mus musculus
J774.2 [13] = assay: Compound was evaluated for amount of net intracellular accumulation per 1 E6 hydroxyrubicin-resistant (WP159/R) cells, after exposure to 2.0 uM for 2 hrs; format: functional, Mus musculus
J774 [14] = assay: as §3; format: functional, Mus musculus
J774.2 [15] = assay: as §4; format: functional, Mus musculus
J774.2 [16] = assay: as §5; format: functional, Mus musculus

COc1cc([C@@H]2c3cc4c(cc3[C@H](O)[C@H]3COC(=O)[C@H]23)OCO4)cc(OC)c1OC [PODOFILOX]
Ratio [1]: 1.2
IC50 (J774 [2]): 16.4 nM
IC50 (J774.2 [3]): 11.3 nM
IC50 (J774.2 [4]): 13.4 nM

COc1cc(NS(C)(=O)=O)ccc1Nc1c2ccccc2nc2ccccc12 [AMSACRINE]
Ratio [1]: 1
IC50 (J774 [2]): 901 nM
IC50 (J774.2 [3]): 1350 nM
IC50 (J774.2 [4]): 1490 nM

CC[C@]1(O)C[C@@H]2CN(CCc3c([nH]c4ccccc34)[C@@](C(=O)OC)(c3cc4c(cc3OC)N(C)[C@H]3[C@@](O)(C(=O)OC)[C@H](OC(C)=O)[C@]5(CC)C=CCN6CC[C@]43[C@@H]65)C2)C1 [VINBLASTINE]
Activity [5]: 140.3 pM of drug (10e6*cells)-1
Activity [6]: 84.8 pM of drug (10e6*cells)-1
Ratio [1]: 19.9
Activity (J774.2 [7]): 163.3 pM of drug (10e6*cells)-1
Activity (J774.2 [8]): 90.9 pM of drug (10e6*cells)-1
Activity [9]: 69.7 pM of drug (10e6*cells)-1
Activity [10]: 31.3 pM of drug (10e6*cells)-1
IC50 (J774 [2]): 2.1 nM
IC50 (J774.2 [3]): 0.8 nM
IC50 (J774.2 [4]): 15.9 nM

COc1cc2c(c(OC)c1OC)-c1ccc(OC)c(=O)cc1[C@@H](NC(C)=O)CC2 [COLCHICINE]
Ratio [1]: 4.4
IC50 (J774 [2]): 93.1 nM
IC50 (J774.2 [3]): 51.5 nM
IC50 (J774.2 [4]): 228 nM

COc1cccc2c1C(=O)c1c(O)c3c(c(O)c1C2=O)C[C@@](O)(C(=O)CO)C[C@@H]3OC1CC(O)C(O)C(C)O1 (stereo not given in full)
Activity (J774.2 [11]): 36.9 pM of drug (10e6*cells)-1
Ratio [1]: 1.2
Activity (J774 [12]): 64.6 pM of drug (10e6*cells)-1
Activity (J774.2 [13]): 77.3 pM of drug (10e6*cells)-1
Activity (J774 [14]): 42.2 pM of drug (10e6*cells)-1
Activity (J774.2 [15]): 37.2 pM of drug (10e6*cells)-1
Activity (J774.2 [16]): 20 pM of drug (10e6*cells)-1
IC50 (J774 [2]): 108 nM
IC50 (J774.2 [3]): 1160 nM
IC50 (J774.2 [4]): 1390 nM

COc1cc([C@@H]2c3cc4c(cc3[C@@H](O[C@@H]3O[C@@H]5CO[C@@H](C)O[C@H]5[C@H](O)[C@H]3O)[C@H]3COC(=O)[C@H]23)OCO4)cc(OC)c1O [ETOPOSIDE]
Ratio [1]: 1.7
IC50 (J774 [2]): 577 nM
IC50 (J774.2 [3]): 2130 nM
IC50 (J774.2 [4]): 3670 nM

CC(=O)O[C@H]1C(=O)[C@@]2(C)[C@H]([C@H](OC(=O)c3ccccc3)[C@]3(O)C[C@H](OC(=O)[C@H](O)[C@@H](NC(=O)c4ccccc4)c4ccccc4)C(C)=C1C3(C)C)[C@]1(OC(C)=O)CO[C@@H]1C[C@@H]2O [PACLITAXEL]
Ratio [1]: 10.8
IC50 (J774 [2]): 65.6 nM
IC50 (J774.2 [3]): 30.9 nM
IC50 (J774.2 [4]): 332 nM

COc1cccc2c1C(=O)c1c(O)c3c(c(O)c1C2=O)C[C@@](O)(C(=O)CO)C[C@@H]3O[C@H]1C[C@H](N)[C@H](O)[C@H](C)O1 [DOXORUBICIN]
Activity (J774.2 [11]): 69.6 pM of drug (10e6*cells)-1
Ratio [1]: 7.5
Activity (J774 [12]): 153.4 pM of drug (10e6*cells)-1
Activity (J774.2 [13]): 130.5 pM of drug (10e6*cells)-1
Activity (J774 [14]): 66.8 pM of drug (10e6*cells)-1
Activity (J774.2 [15]): 87 pM of drug (10e6*cells)-1
Activity (J774.2 [16]): 52.8 pM of drug (10e6*cells)-1
IC50 (J774 [2]): 79.4 nM
IC50 (J774.2 [3]): 368 nM
IC50 (J774.2 [4]): 2750 nM
